In PubChem BioAssay (NCI) one finds TGI data, which are given here for 15 molecules.

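Cells were grown in 96-well plates and exposed to each compound for 48 hours at five concentrations; endpoints were interpolated linearly between bracketing concentrations, or set to the highest concentration if not reached. TGI marks complete inhibition of growth.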 Bounds are passed on as bounds.

Holding throughout (test): NCI anticancer screen, dose series, 48 h
In assay [1] the test system is 786-0 renal.
Assay [2] relates to COLO 205 colon.
For assay [3], the system named is NCI/ADR-RES ovarian.
The subject of assay [4] is OVCAR-8 ovarian.
Assay [5] deals with SF-539 CNS.
The subject of assay [6] is SK-MEL-2 melanoma.
The subject of assay [7] is UACC-257 melanoma.
In assay [8] the test system is MALME-3M melanoma.
The test system of assay [9] is RXF 393 renal.
Assay [10] relates to SNB-75 CNS.
In assay [11] the test system is HCC-2998 colon.

For the molecule `COc1cc(Br)cc2cc(-c3cn4c(n3)sc3ccccc34)c(=O)oc12`, the TGI in assay [1] is greater than 75 µM; in [2], greater than 75 µM; in assay [3], greater than 75 µM; in assay [4] it was greater than 75 µM; in assay [5], greater than 75 µM; in [6], 70.6 µM. Moreover, the TGI in assay [7] was greater than 75 µM.
With `O=C1NC(=S)NC(=O)C1C(c1ccc(O)cc1)C1C(=O)NC(=S)NC1=O`, the TGI in [1], in [2], in [8], in assay [3], in [4] and in [9] was greater than 100 µM throughout. Also, the TGI in assay [6] and in assay [7] was greater than 100 µM throughout.
`C[C@@H]1Nc2cc(NC(=O)OCCF)nc(N)c2N=C1c1ccccc1`: the TGI is less than 0.0001 µM in assay [2]; 49 µM in assay [8]; less than 0.0001 µM in assay [3]; 30 µM in assay [4]; greater than 100 µM in assay [9]; less than 0.0001 µM in assay [5]. Moreover, the TGI in assay [10] and in assay [7] was greater than 100 µM each time.
`O=C(c1cccs1)N1CCc2ccccc2C1`: the TGI in assay [1], in [2], in assay [11], in [8], in [3] and in assay [9] was greater than 100 µM in each case. For the same molecule, the TGI in assay [5], in [6] and in [7] was greater than 100 µM each time.
`CN(C(=O)Cc1cccc(N=C=S)c1)[C@H]1CCCC[C@@H]1N1CCCC1`: the TGI in assay [1] stood at 28.6 µM; in assay [2] it was 25.2 µM; in assay [8] it was 40.5 µM; in [3] it was 79.8 µM; in assay [4] it was 42.2 µM; in assay [9], 25.9 µM. For the same molecule, the TGI in assay [6] came to 34.4 µM; in [10], 27.8 µM; in assay [7], 28.9 µM.
Consider `CCCCC1Cc2ccccc2-c2nc3ccccc3n21` (stereo not drawn), for which the TGI in [1] was found to be 61.9 µM; in [11], 27.8 µM; in assay [3], 33.5 µM; in assay [4], 34.9 µM; in assay [9] it was 34.5 µM; in assay [5], 41.4 µM. The values for the TGI in assay [6] and in assay [7] were 30.7 µM and 32.2 µM, respectively.
`CC1S/C(=N\N=C2/C(=O)Nc3ccc(Br)cc32)N(C2CCCCC2)C1=O` (stereo not drawn): the TGI in [1] is 6.01 µM; in assay [2], 33.4 µM; in assay [11] it was 45 µM; in assay [8], 31.1 µM; in assay [3], 15.6 µM; in assay [9], 14.9 µM. Besides, the TGI is 16.3 µM in assay [5], 3.65 µM in assay [6] and greater than 100 µM in [7].
For the molecule `CCOC1=NC(O)c2cccn2-c2sccc21` (stereo not drawn), the TGI in assay [1], in [2], in [11], in [8], in assay [3] and in assay [4] was greater than 100 µM each time. Also, the TGI in assay [9], in assay [5] and in assay [6] was greater than 100 µM each time.
For `COC(=O)c1cc2c(cc1Cl)Sc1nnc(Nc3ccc(C)cc3)n1S2(=O)=O`, the TGI was 24.1 µM in [1]; 17.9 µM in assay [2]; 17.5 µM in assay [11]; 26.3 µM in assay [8]; 25.7 µM in assay [3]; 40.4 µM in assay [4]. In addition, the TGI came out at 13.2 µM in assay [9], 2.92 µM in [5], 9.16 µM in [6] and 25.6 µM in assay [7].
Turning to `CCN(CC)CCSc1c2cc(OC)ccc2nc2ccc(OC)cc12`, the TGI in assay [1] was 4.1 µM; in [2], 4.14 µM; in [11] it was 40.5 µM; in [8], 7.74 µM; in assay [3] it was greater than 25.9 µM; in [4], 35.3 µM. Moreover, the TGI was greater than 100 µM in [5], 44.6 µM in [6], 31.8 µM in assay [10] and 16.4 µM in assay [7].
As for `COC(=O)Nc1nc2ccc(S(=O)(=O)SC)cc2[nH]1`, the TGI was 16.9 µM in [1]; greater than 100 µM in [2]; 42.4 µM in [11]; 25.6 µM in assay [8]; 82.4 µM in [3]; 30.6 µM in assay [4]. Further, the TGI amounted to 17.9 µM in assay [9], 39.3 µM in assay [5], 26.9 µM in [6] and 45.5 µM in assay [7].
Consider `C=CCCC1(CC(Sc2ccccc2)P(=O)(c2ccccc2)c2ccccc2)OCCO1` (stereo not drawn), for which the TGI in assay [1], in assay [2], in assay [11], in assay [8], in [3] and in [4] was greater than 10 µM in each case. Also, the TGI in assay [9], in assay [5], in assay [6] and in assay [7] was greater than 10 µM each time.
For `O=C1NC2O[C@H](CNC(=O)c3cc(Br)c[nH]3)CC2(O)N1` (mixture of isomers), the TGI in assay [1], in assay [2], in assay [8], in assay [3], in [4] and in [5] was greater than 100 µM in each case. The TGI in [6], in assay [10] and in assay [7] was greater than 100 µM in each case.
For the molecule `C[C@@H](c1ccccc1)n1c(N)c(C#N)c2ccc([N+](=O)[O-])cc2c1=O`, the TGI is 31.3 µM in assay [1]; 30.8 µM in assay [2]; 39.4 µM in assay [11]; 22.5 µM in assay [3]; 30.6 µM in assay [4]; greater than 100 µM in assay [6]. Moreover, the values for the TGI in [10] and in assay [7] were 46.2 µM and 40.3 µM, respectively.
`C[N+]1(C)CCc2cc(O)c(O)cc2C1Cc1ccc(O)c(O)c1` (stereo not drawn): the TGI in assay [1] is greater than 100 µM; in assay [2], greater than 100 µM; in [8], 91.4 µM; in assay [3], greater than 100 µM; in assay [4], greater than 100 µM; in [9], greater than 100 µM. Further, the TGI is greater than 100 µM in assay [5], greater than 100 µM in assay [6] and 86.9 µM in assay [7].
